According to paper PMC7887804 (Chemical Research in Toxicology, 2020):
Read-outs that look alike come from different tables or passages of the source. Marks after values point to notes of the source that are not given here. One block for each compound: values may come before it.

Experiments:
[1] = rats, 100 mg/kg bw [14C]-labelled, parent compound in plasma up to 24 h; cited from earlier work
[2] = In vitro metabolism study; type: in vitro ADME, rat; conditions: for CLint,u: rat (R), CLintapp corrected for the fraction unbound in the incubation; for CLintapp (apparent in vitro intrinsic clearance): rat liver S9 (R), 1 μM substrate
[3] = In vitro metabolism study; type: in vitro ADME, human; conditions: for conversion in incubations with and without the cofactor mix: RLS9 and HLS9, data not shown; for CLint,u: human (H), CLintapp corrected for the fraction unbound in the incubation; for CLintapp (apparent in vitro intrinsic clearance): human liver S9 (H), 1 μM substrate; for measured concentration at t = 0 lower than the added 1 μM: S9 incubation tubes, suggests binding to the plastic walls
[4] = positive hit calls, ToxCast summary data; cited from earlier work
[5] = system: human thyroid peroxidase (TPO); conditions: ToxCast, cited from earlier work; for activity in the TPO assay: NCCT_TPO_AUR_dn
[6] = cited from earlier work; for pKa: A, acid, ref Tsao [40]; for logP: octanol/water, ref PubChem
thyroid peroxidase (TPO) [7] = assay: QIVIVE oral equivalent dose related to TPO inhibition; parameters: species or system human; conditions: humans; for oral equivalent dose related to TPO inhibition: Cmax equal to AC50 in NCCT_TPO_AUR_dn; for margin between human exposure and oral equivalent dose related to TPO inhibition: highest exposure estimates
[8] = cited from earlier work
[9] = developmental toxicity study; cited from earlier work
[10] = cited from earlier work; remark: listed apart in the source
thyroid peroxidase (TPO) [11] = assay: QIVIVE oral equivalent dose related to TPO inhibition; parameters: species or system rat; conditions: rats, Cmax equal to AC50 in NCCT_TPO_AUR_dn
[12] = 90 day toxicity study, mainly effects on hematological parameters; cited from earlier work
[13] = rats ♂, 17.5 mg/kg bw, mean (min–max)
[14] = humans ♀ and ♂, 1.4 mg/kg bw, mean
[15] = humans ♀ and ♂, 14 mg/kg bw, mean
[16] = humans ♀, 1.4 mg/kg bw, mean (min–max)
[17] = humans ♀, 14 mg/kg bw, mean (min–max)
[18] = humans ♂, 1.4 mg/kg bw, mean (min–max)
[19] = humans ♂, 14 mg/kg bw, mean (min–max)
[20] = rats ♀ and ♂, 14 mg/kg bw, mean
[21] = rats ♀ and ♂, 135 mg/kg bw, mean
[22] = rats ♀, 14 mg/kg bw, mean (min–max)
[23] = rats ♀, 135 mg/kg bw, mean (min–max)
[24] = rats ♂, 14 mg/kg bw, mean (min–max)
[25] = rats ♂, 135 mg/kg bw, mean (min–max)

- CLint,u [2]: 642 μL/min/mg of S9 protein
- CLintapp (apparent in vitro intrinsic clearance) [2]: 629 μL/min/mg of S9 protein
- faster conversion (CLint) by RLS9 compared with HLS9 ([2]; rat vs human liver S9): 6 fold
- CLint,u [3]: 121 μL/min/mg of S9 protein
- CLintapp (apparent in vitro intrinsic clearance) [3]: 102 μL/min/mg of S9 protein
Compound: COC(=O)c1ccc(O)cc1 [methylparaben]
- reported in vivo Cmax [1]: No parent compound was detected
- conversion in incubations with and without the cofactor mix [3]: occurs both in the presence and absence of the cofactor mix
- number of ToxCast assays in which the compound is active out of assays tested [4]: 24 out of 886

- CLint,u [2]: 4695 μL/min/mg of S9 protein
- CLintapp (apparent in vitro intrinsic clearance) [2]: 3662 μL/min/mg of S9 protein
- conversion in incubations with and without the cofactor mix [3]: to some extent
- measured concentration at t = 0 lower than the added 1 μM [3]: up to 2 fold
- CLint,u [3]: 3999 μL/min/mg of S9 protein
- CLintapp (apparent in vitro intrinsic clearance) [3]: 3119 μL/min/mg of S9 protein
- oral equivalent dose related to TPO inhibition (thyroid peroxidase (TPO) [7]): 99 mg/kg bw
- margin between human exposure and oral equivalent dose related to TPO inhibition (thyroid peroxidase (TPO) [7]): at least 106 fold
Compound: CCCCCCCCOC(=O)c1cc(O)c(O)c(O)c1 [octyl gallate]
- activity in the TPO assay [5]: active
- pKa [6]: 7.94 (A)
- logP [6]: 4.33
- number of ToxCast assays in which the compound is active out of assays tested [4]: 355 out of 982
- reported in vivo Cmax ([8]; rats ♀, 17.5 mg/kg bw, mean): ♀ 20 (range NR)^a ng/mL
- reported in vivo AUC [8, 13]: ♂ 3.7 (1.4–7.8) n = 6 ng*hr/mL
- reported in vivo Cmax [8, 13]: ♂ 19 (9–41) n = 6 ng/mL

Compound: CCCOC(=O)c1cc(O)c(O)c(O)c1 [propyl gallate]
- AC50 ([5]; read-out: AC50 in the NCCT_TPO_AUR_dn assay, TPO inhibition): 580 nM
- CLint,u [2]: 835 μL/min/mg of S9 protein
- CLintapp (apparent in vitro intrinsic clearance) [2]: 818 μL/min/mg of S9 protein
- CLint,u [3]: 437 μL/min/mg of S9 protein
- CLintapp (apparent in vitro intrinsic clearance) [3]: 428 μL/min/mg of S9 protein
- NOAEL [9]: 300 mg/kg bw/day
- reported in vivo AUC [10, 14]: ♀ and ♂ 21 n = 11 ng*hr/mL
- reported in vivo Cmax [10, 14]: ♀ and ♂ 13 n = 11 ng/mL
- reported in vivo AUC [10, 15]: ♀ and ♂ 346 n = 10 ng*hr/mL
- reported in vivo Cmax [10, 15]: ♀ and ♂ 152 n = 10 ng/mL
- reported in vivo AUC [10, 16]: ♀ 19 (13-21) n = 4 ng*hr/mL
- reported in vivo Cmax [10, 16]: ♀ 12 (11–14) n = 4 ng/mL
- reported in vivo AUC [10, 17]: ♀ 290 (25–425) n = 5 ng*hr/mL
- reported in vivo Cmax [10, 17]: ♀ 150 (10–240) n = 5 ng/mL
- reported in vivo AUC [10, 18]: ♂ 21 (9.4–42) n = 7 ng*hr/mL
- reported in vivo Cmax [10, 18]: ♂ 14 (4–33) n = 7 ng/mL
- reported in vivo AUC [10, 19]: ♂ 402 (290–587) n = 5 ng*hr/mL
- reported in vivo Cmax [10, 19]: ♂ 155 (84–208) n = 5 ng/mL
- oral equivalent dose related to TPO inhibition (thyroid peroxidase (TPO) [11]): 7.9 mg/kg bw
- NOAEL [12]: 150 mg/kg bw/day
- logP [6]: 1.87
- oral equivalent dose related to TPO inhibition (thyroid peroxidase (TPO) [7]): 6.3 mg/kg bw
- number of ToxCast assays in which the compound is active out of assays tested [4]: 131 out of 888
- reported in vivo AUC [8, 20]: ♀ and ♂ 95 n = 12 ng*hr/mL
- reported in vivo Cmax [8, 20]: ♀ and ♂ 192 n = 12 ng/mL
- reported in vivo AUC [8, 21]: ♀ and ♂ 1624 n = 16 ng*hr/mL
- reported in vivo Cmax [8, 21]: ♀ and ♂ 4753 n = 16 ng/mL
- reported in vivo AUC [8, 22]: ♀ 66 (39–100) n = 6 ng*hr/mL
- reported in vivo Cmax [8, 22]: ♀ 238 (68–462) n = 6 ng/mL
- reported in vivo AUC [8, 23]: ♀ 1164 (321–3451) n = 8 ng*hr/mL
- reported in vivo Cmax [8, 23]: ♀ 4246 (884–12 825) n = 8 ng/mL
- reported in vivo AUC [8, 24]: ♂ 123 (62–217) n = 6 ng*hr/mL
- reported in vivo Cmax [8, 24]: ♂ 145 (67–334) n = 6 ng/mL
- reported in vivo AUC [8, 25]: ♂ 2085 (660–4119) n = 8 ng*hr/mL
- reported in vivo Cmax [8, 25]: ♂ 5260 (1635–11085) n = 8 ng/mL

- CLint,u [2]: 11 600 μL/min/mg of S9 protein
- CLintapp (apparent in vitro intrinsic clearance) [2]: 232 μL/min/mg of S9 protein
- conversion in incubations with and without the cofactor mix [3]: to some extent
- measured concentration at t = 0 lower than the added 1 μM [3]: up to 2 fold
- CLint,u [3]: 8800 μL/min/mg of S9 protein
- CLintapp (apparent in vitro intrinsic clearance) [3]: 88 μL/min/mg of S9 protein
- oral equivalent dose related to TPO inhibition (thyroid peroxidase (TPO) [7]): 69 mg/kg bw
- margin between human exposure and oral equivalent dose related to TPO inhibition (thyroid peroxidase (TPO) [7]): ≥ 122 fold
Compound: CCCCCCCCCCCCOC(=O)c1cc(O)c(O)c(O)c1 [dodecyl gallate]
- activity in the TPO assay [5]: active
- pKa [6]: 7.93 (A)
- logP [6]: 6.37
- number of ToxCast assays in which the compound is active out of assays tested [4]: 210 out of 441
- reported in vivo Cmax ([8]; rats, 10 mg/kg bw oral, blood collected only 10 min after dosing): no detectable plasma concentrations
